A short description of data set [1]: Distribution of drug in epidermis and dermis after Franz cell skin permeation test. In kind it is in vitro ADME, human. The source says: As a way of measuring the skin permeation properties of selective COX-2 inhibitory drugs or prodrugs in dermally deliverable pharmaceutical compositions, a Franz diffusion cell was provided utilizing a human cadaver skin membrane and a 1% polysorbate 80 (Tween™ 80) solution as a receptor fluid. Frozen skin was thawed at room temperature and punched with a 20 mm puncher to provide a membrane. The receptor compartment of the Franz diffusion cell was filled with the receptor fluid and the diffusion cell was maintained at 32° C. The membrane was mounted on the receptor compartment, covered and fastened with a clamp. Air bubbles were removed from the receptor fluid, which was allowed to equilibrate for 30 minutes. A test composition was brought into contact with the membrane. The amount of drug which permeated through the membrane in a 24 hour period was determined by HPLC analysis of the receptor fluid. Each test was conducted in several replicates.
Distribution of drug in epidermis and dermis was also determined. Results are shown in Table 6, by comparison with the solution compositions of Examples 1 and 2.

Data set [2] in a line: Skin permeation (skin flux) in Franz diffusion cell. The settings on record: for Normalized skin flux: normalized to a standard run on each skin lot. In kind it is in vitro ADME, human. The procedure: Suitable receptor fluids can be selected by one of skill in the art, but presently preferred receptor fluids are a 1% polysorbate 80 solution and a 6% polyethylene glycol (20) oleyl ether (oleth-20) solution. The receptor fluid is maintained at a suitable temperature, preferably a temperature approximating living human skin temperature. A receptor fluid temperature of 32° C. has been found suitable. The membrane is oriented so that its internal surface, i.e., the surface opposite the epidermal surface, is placed in contact with the receptor fluid. Air bubbles are removed from the receptor fluid, which is then allowed to equilibrate for 30 minutes with the membrane. A test sample of a composition is placed in contact with the epidermal surface of the membrane, and left in place for a desired period, for example 24 hours. […] The receptor compartment of the Franz diffusion cell was filled with the receptor fluid and the diffusion cell was maintained at 32° C. The membrane was mounted on the receptor compartment, covered and fastened with a clamp. Air bubbles were removed from the receptor fluid, which was allowed to equilibrate for 30 minutes. A test composition was brought into contact with the membrane. […] Each test was conducted in several replicates.

The nature of data set [3]: Drug concentration of saturated solutions. In kind it is physicochemical. The procedure: Saturated solutions of celecoxib were prepared in the following solvents: 70% aqueous ethanol (EtOH), ethanol, PEG-400 and propylene glycol (PG). The solutions were tested for skin permeation properties as described above, using 250 μl drops of each test solution.
Since different lots of skin were used to determine the skin flux of each compound, a standard was run on each skin lot and the data were normalized.
The solutions were tested for skin permeation properties as described above.

Data set [4] is described as follows: Skin permeation (skin flux) in Franz diffusion cell. In kind it is in vitro ADME, human. To be noted: saturated aqueous solution, 50° C.
For another data set, the target named is T1, COX-2 (Homo sapiens, UniProt P35354).
T1 sequence (P35354 18-604): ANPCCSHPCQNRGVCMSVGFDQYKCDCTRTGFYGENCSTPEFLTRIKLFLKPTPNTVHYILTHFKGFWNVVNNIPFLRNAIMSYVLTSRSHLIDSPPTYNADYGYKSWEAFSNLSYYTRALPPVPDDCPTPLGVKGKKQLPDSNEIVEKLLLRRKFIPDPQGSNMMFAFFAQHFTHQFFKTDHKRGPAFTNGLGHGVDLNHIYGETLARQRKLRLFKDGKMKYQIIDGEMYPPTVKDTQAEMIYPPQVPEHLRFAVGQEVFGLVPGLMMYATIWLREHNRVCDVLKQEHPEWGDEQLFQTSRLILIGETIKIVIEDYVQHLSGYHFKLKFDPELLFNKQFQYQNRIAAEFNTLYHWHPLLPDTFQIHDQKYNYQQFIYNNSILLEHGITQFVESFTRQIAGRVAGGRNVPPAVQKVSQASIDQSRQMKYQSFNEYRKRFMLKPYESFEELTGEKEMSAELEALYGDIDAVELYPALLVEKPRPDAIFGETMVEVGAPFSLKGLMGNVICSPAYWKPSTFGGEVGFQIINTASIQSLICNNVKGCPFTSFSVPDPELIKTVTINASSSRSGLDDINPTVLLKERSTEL
The settings on record: in vitro; cited from earlier work.

The next data set concerns the target COX-1 (Homo sapiens, UniProt P23219). To be noted: in vitro; cited from earlier work.
[5] abbreviates: gel, 1% drug in 70% aqueous ethanol with 3% Klucel, 50 mg, non-occlusive.
The mark [6] stands for this setting: saturated solution in 70% aqueous ethanol, 250 μl, occlusive.
Setting [7] is: 5% oleyl alcohol and 3% thymol in 70% aqueous ethanol, versus skin flux data in Table 2.
[8] abbreviates: Celecoxib + parecoxib Na composition: saturated celecoxib in 67% aqueous ethanol containing 5% parecoxib sodium.
[9] abbreviates: gel, 1% drug (10 mg/ml) in 70% aqueous ethanol with 3% Klucel, 50 mg applied, non-occlusive.
Where [10] appears, read: saturated aqueous solution, 32° C.
Setting [11] is: saturated solution in 70% aqueous ethanol containing 5% oleyl alcohol and 3% thymol, 250 μl.
Setting [12] is: saturated solution in 70% aqueous ethanol, 250 μl, occlusive, 24 hour period, 32° C.
[13] abbreviates: saturated solution in 70% aqueous ethanol, skin donor 3.
Setting [14] is: saturated solution in 70% aqueous ethanol, skin donor 4.
Where [15] appears, read: saturated solution in 70% aqueous ethanol.
The mark [16] stands for this setting: saturated solution in PEG-400, 250 μl, 24 hour period.
The mark [17] stands for this setting: saturated solution in ethanol (EtOH), 250 μl, 24 hour period.
Setting [18] is: saturated solution in propylene glycol (PG), 250 μl, 24 hour period.
The mark [19] stands for this setting: with 5% parecoxib sodium in 67% aqueous ethanol, versus Table 2 data in absence of parecoxib sodium.
Where [20] appears, read: Valdecoxib + parecoxib Na composition: saturated valdecoxib in 67% aqueous ethanol containing 5% parecoxib sodium.

Each structure is given as a SMILES string. Values joined by “and” are separate entries in the source; they are usually repeats but may differ in a detail not shown here. Equal entries are not always repeated.

Chain of COX-1 (P23219 24-599): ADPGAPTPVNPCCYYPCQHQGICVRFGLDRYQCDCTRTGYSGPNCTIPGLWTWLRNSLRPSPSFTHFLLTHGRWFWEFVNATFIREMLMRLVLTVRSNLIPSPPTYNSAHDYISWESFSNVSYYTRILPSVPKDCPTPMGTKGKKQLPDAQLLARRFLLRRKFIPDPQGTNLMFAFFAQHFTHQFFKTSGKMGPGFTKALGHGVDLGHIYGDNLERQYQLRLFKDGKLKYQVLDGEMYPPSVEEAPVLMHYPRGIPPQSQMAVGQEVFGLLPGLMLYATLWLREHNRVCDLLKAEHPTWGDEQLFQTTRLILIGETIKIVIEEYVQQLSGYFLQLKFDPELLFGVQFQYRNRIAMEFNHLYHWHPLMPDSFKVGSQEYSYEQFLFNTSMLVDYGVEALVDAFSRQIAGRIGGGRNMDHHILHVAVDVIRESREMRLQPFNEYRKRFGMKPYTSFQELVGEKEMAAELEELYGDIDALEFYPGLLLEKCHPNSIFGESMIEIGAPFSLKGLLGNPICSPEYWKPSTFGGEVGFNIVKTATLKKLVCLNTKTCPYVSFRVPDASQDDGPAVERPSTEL

As to `Cc1ccc(-c2cc(C(F)(F)F)nn2-c2ccc(S(N)(=O)=O)cc2)cc1` [celecoxib, 4-[5-(4-methylphenyl)-3-(trifluoromethyl)-1H-pyrazol-1-yl]benzenesulfonamide], the Drug in dermis worked out at 1.22 ± 0.51 µg in data set [1] (setting [5]) and 2.50 ± 1.53 µg in data set [1] (setting [6]). Besides, the Drug in epidermis in data set [1] (setting [5]) was determined as 2.36 ± 1.06 µg; in data set [1] (setting [6]), 3.92 ± 0.79 µg. Moreover, the Enhancement factor was determined as 1.4 in data set [2] (setting [7]) and 11.5 in data set [2] (setting [19]). Also, the Skin flux was 183 ± 153 μg/cm^2 · day in data set [2] (setting [8]); 3.82 ± 3.36 μg/cm^2 · day in data set [2] (setting [9]); 4.27 ± 0.84 μg/cm^2 · day in data set [2] (setting [10]); 21.7 ± 4.6 μg/cm^2 · day in data set [2] (setting [11]); 15.7 μg/cm^2 · day and 15.7 ± 3.83 μg/cm^2 · day in data set [2] (setting [12]); 15.7 ± 3.83 μg/cm^2 · day in data set [2] (saturated solution in 70% aqueous ethanol, 250 μl, occlusive, 24 hour period, 32° C., listed as Celecoxib). The Skin flux in data set [2] (saturated solution in 70% aqueous ethanol, skin donor 1) is on record as 15.7 ± 3.8 μg/cm^2 · day; in data set [2] (setting [13]) it was 73.7 ± 11.8 μg/cm^2 · day; in data set [2] (setting [14]), 31.9 ± 9.6 μg/cm^2 · day; in data set [2] (saturated solution in 70% aqueous ethanol, skin donor 6), 50.4 ± 12.7 μg/cm^2 · day; in data set [2] (setting [16]) it was “No skin permeation”; in data set [2] (saturated solution in PEG-400, 250 μl, 24 hour period, listed as Celecoxib) it was “ud”. Moreover, the Skin flux was 5.62 ± 1.49 μg/cm^2 · day in data set [2] (setting [17]); “No skin permeation” in data set [2] (setting [18]); “ud” in data set [2] (saturated solution in propylene glycol (PG), 250 μl, 24 hour period, listed as Celecoxib); 23.71 ± 4.42 μg/cm^2 · day in data set [4]. For the same compound, the Celecoxib permeation in data set [2] (saturated celecoxib solution in 70% ethanol, amount in receptor fluid after 15 hours) amounted to 1.406 ± 0.086 μg/cm^2. For the same compound, the Normalized skin flux in data set [2] (setting [15]) was determined as 34.9 μg/cm^2 · day. The Concentration came out at 0.5 µg/mL in data set [3] (saturated aqueous solution); 15900 µg/mL in data set [3] (saturated in 67% aqueous ethanol containing 5% parecoxib sodium); 15200 µg/mL in data set [3] (setting [15]); 297000 µg/mL in data set [3] (saturated solution in PEG-400); 91400 µg/mL in data set [3] (saturated solution in ethanol (EtOH)); 33300 µg/mL in data set [3] (saturated solution in propylene glycol (PG)).

Regarding `CCC(=O)NS(=O)(=O)c1ccc(-c2c(-c3ccccc3)noc2C)cc1` [parecoxib Na], the Enhancement factor in data set [2] (setting [7]) is 4.8. Moreover, the Skin flux in data set [2] (setting [11]) was 1210 ± 58.0^ μg/cm^2 · day; in data set [2] (setting [12]) it was 254 ± 164 μg/cm^2 · day. In addition, the Normalized skin flux in data set [2] (setting [15]) came to 120.0 μg/cm^2 · day. Besides, the Concentration in data set [3] (setting [15]) is 386000 µg/mL.

Regarding `CCC(=O)NS(=O)(=O)c1ccc(-c2c(-c3ccccc3)noc2C)cc1` [parecoxib, N-[[4-(5-methyl-3-phenylisoxazol-4-yl)phenyl]sulfonyl]propanamide], the Skin flux in data set [2] (setting [8]) turned out to be 74.7 ± 14.7 μg/cm^2 · day; in data set [2] (setting [20]), 64.1 ± 11.3 μg/cm^2 · day; in data set [2] (setting [10]) it was 8.62 ± 1.94 μg/cm^2 · day; in data set [4], 47.16 ± 3.70 μg/cm^2 · day. The compound also displayed a Concentration in data set [3] (saturated aqueous solution) of 50.8 µg/mL. At COX-2, the “inhibitory activity against COX-2” value is “weak in vitro inhibitory activity”. Besides, the “inhibitory activity against COX-1” value on COX-1 is “weak in vitro inhibitory activity”.

As to `Cc1onc(-c2ccccc2)c1-c1ccc(S(N)(=O)=O)cc1` [valdecoxib, 4-[5-methyl-3-phenylisoxazol-4-yl]benzenesulfonamide], the values for the Drug in dermis result in data set [1] (setting [5]) and in data set [1] (setting [6]) were “ud” and 0.543 ± 0.525 µg, respectively. Also, the Drug in epidermis was found to be 1.81 ± 1.87 µg in data set [1] (setting [5]) and 9.27 ± 3.84 µg in data set [1] (setting [6]). Further, the Enhancement factor in data set [2] (setting [7]) was found to be 25; in data set [2] (setting [19]) it was 8.4. The Skin flux was 108 ± 16.7 μg/cm^2 · day in data set [2] (setting [20]); 11.3 ± 6.48 μg/cm^2 · day in data set [2] (setting [9]); 7.94 ± 0.89 μg/cm^2 · day in data set [2] (setting [10]); 323 ± 21 μg/cm^2 · day in data set [2] (setting [11]); 12.8 μg/cm^2 · day and 12.8 ± 4.96 μg/cm^2 · day in data set [2] (setting [12]); 12.8 ± 4.96 μg/cm^2 · day in data set [2] (saturated solution in 70% aqueous ethanol, 250 μl, occlusive, 24 hour period, 32° C., listed as Valdecoxib). For the same compound, the Skin flux in data set [2] (saturated solution in 70% aqueous ethanol, skin donor 2) is given as 12.8 ± 5.0 μg/cm^2 · day; in data set [2] (setting [13]), 91.9 ± 15.0 μg/cm^2 · day; in data set [2] (setting [14]) it was 58.3 ± 11.0 μg/cm^2 · day; in data set [2] (setting [16]) it was “No skin permeation”; in data set [2] (saturated solution in PEG-400, 250 μl, 24 hour period, listed as Valdecoxib) it was “ud”; in data set [2] (setting [17]), 1.44 ± 0.54 μg/cm^2 · day. Also, the Skin flux result is listed as “No skin permeation” in data set [2] (setting [18]); “ud” in data set [2] (saturated solution in propylene glycol (PG), 250 μl, 24 hour period, listed as Valdecoxib); 42.12 ± 7.82 μg/cm^2 · day in data set [4]. The compound also yielded a Normalized skin flux in data set [2] (setting [15]) of 53.4 μg/cm^2 · day. Besides, the “inhibitory activity against COX-1” value on COX-1 is “weak inhibitor”.

The values above are taken from US20030161867A1, “Skin-permeable selective cyclooxygenase-2 inhibitor composition” (priority 2001, published 2003).
